Patent US9464082B2, “Aryl and arylalkyl substituted pyrazolyl and pyrimidinyl tricyclic enones as antioxidant inflammation modulators” (AbbVie Inc., priority 2014, dated 2016)

Tested on: IFNγ-Induced NO Production
Assay: Nitric Oxide Suppression Assay (Suppression of IFNγ-Induced NO Production)
Format: cell-based
Details: RAW264.7; RAW 264.7 mouse macrophage cells; 2 hour pre-treatment with compound (3 μM to 0.3 nM, 10 point curve); 20 ng/mL interferon gamma, ~18 hour; Griess detection; n=2-3 in duplicates
In short: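 Mouse RAW 264.7 macrophages pre-treated 2 h at 37 °C with compound (3 μM to 0.3 nM, 10 points; DMSO ≤1%), then stimulated with 20 ng/mL interferon gamma for ~18 h. Supernatant nitrite measured by Griess reaction, absorbance 520–550 nm. IC50 from curve fit of signal normalised to IFNγ alone, mean n=2-3 in duplicate.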

SMILES | IC50 [nM]
CCCNC(=O)c1cccc([C@]23C=C(C#N)C(=O)[C@@H](C)[C@@H]2CCc2cncnc23)c1 [Example 96, 3-[(6aS,7S,10aR)-9-cyano-7-methyl-8-oxo-6,6a,7,8-tetrahydrobenzo[h]quinazolin-10a(5H)-yl]-N-propylbenzamide] | 78.2
Cc1nc(-c2ccc(-c3cncn3C)cc2)c2c(n1)[C@@]1(c3ccccc3)C=C(C#N)C(=O)[C@@H](C)[C@@H]1CC2 [Example 139, (6aS,7S,10aR)-2,7-dimethyl-4-[4-(1-methyl-1H-imidazol-5-yl)phenyl]-8-oxo-10a-phenyl-5,6,6a,7,8,10a-hexahydrobenzo[h]quinazoline-9-carbonitrile] | 19
Cc1nc(-c2cccc(CCO)c2)c2c(n1)[C@@]1(c3ccccc3)C=C(C#N)C(=O)[C@@H](C)[C@@H]1CC2 [Example 47, (6aS,7S,10aR)-4-[3-(2-hydroxyethyl)phenyl]-2,7-dimethyl-8-oxo-10a-phenyl-5,6,6a,7,8,10a-hexahydrobenzo[h]quinazoline-9-carbonitrile] | 18.8
COc1ccc([C@]23C=C(C#N)C(=O)[C@@H](C)[C@@H]2CCc2c(-c4ccc5[nH]cnc5c4)nc(C)nc23)cc1 [Example 90, (6aS,7S,10aR)-4-(1H-benzimidazol-5-yl)-10a-(4-methoxyphenyl)-2,7-dimethyl-8-oxo-5,6,6a,7,8,10a-hexahydrobenzo[h]quinazoline-9-carbonitrile] | 7.32
C[C@@H]1C(=O)C(C#N)=C[C@]2(c3ccccc3)c3nn(C)c(-c4cccc(-c5ccc(CNS(C)(=O)=O)cc5)c4)c3CC[C@@H]12 [Example 168, N-({3′-[(5aS,6S,9aR)-8-cyano-2,6-dimethyl-7-oxo-9a-phenyl-4,5,5a,6,7,9a-hexahydro-2H-benzo[g]indazol-3-yl]biphenyl-4-yl}methyl)methanesulfonamide] | 12.3
COC(=O)c1ccc([C@]23C=C(C#N)C(=O)[C@@H](C)[C@@H]2CCc2cncnc23)cc1 [Example 64, methyl 4-[(6aS,7S,10aR)-9-cyano-7-methyl-8-oxo-6,6a,7,8-tetrahydrobenzo[h]quinazolin-10a(5H)-yl]benzoate] | 11
COc1cccc(-c2nc(C)nc3c2CC[C@H]2[C@H](C)C(=O)C(C#N)=C[C@]32c2ccccc2)c1 [Example 43, (6aS,7S,10aR)-4-(3-methoxyphenyl)-2,7-dimethyl-8-oxo-10a-phenyl-5,6,6a,7,8,10a-hexahydrobenzo[h]quinazoline-9-carbonitrile] | 16.5
COc1ccc([C@]23C=C(C#N)C(=O)[C@@H](C)[C@@H]2CCc2c(-c4ccc(-c5ccn[nH]5)cc4)nc(C)nc23)cc1 [Example 80, (6aS,7S,10aR)-10a-(4-methoxyphenyl)-2,7-dimethyl-8-oxo-4-[4-(1H-pyrazol-5-yl)phenyl]-5,6,6a,7,8,10a-hexahydrobenzo[h]quinazoline-9-carbonitrile] | 7.43
Cc1nc(-c2ccc3nccn3c2)c2c(n1)[C@@]1(c3ccccc3)C=C(C#N)C(=O)[C@@H](C)[C@@H]1CC2 [Example 107, (6aS,7S,10aR)-4-(imidazo[1,2-a]pyridin-6-yl)-2,7-dimethyl-8-oxo-10a-phenyl-5,6,6a,7,8,10a-hexahydrobenzo[h]quinazoline-9-carbonitrile] | 10.7
C[C@@H]1C(=O)C(C#N)=C[C@]2(c3ccccc3)c3nn(C)c(-c4cccc(-c5ccnnc5)c4)c3CC[C@@H]12 [Example 151, (5aS,6S,9aR)-2,6-dimethyl-7-oxo-9a-phenyl-3-[3-(pyridazin-4-yl)phenyl]-4,5,5a,6,7,9a-hexahydro-2H-benzo[g]indazole-8-carbonitrile] | 6.81
Cc1nc(O)c2c(n1)[C@@]1(c3ccccc3)C=C(C#N)C(=O)[C@@H](C)[C@@H]1CC2 [Example 20, (6aS,7S,10aR)-4-hydroxy-2,7-dimethyl-8-oxo-10a-phenyl-5,6,6a,7,8,10a-hexahydrobenzo[h]quinazoline-9-carbonitrile] | 45
C[C@@H]1C(=O)C(C#N)=C[C@]2(c3ccccc3)c3n[nH]c(-c4cnn(-c5ccc(C#N)cc5)c4)c3CC[C@@H]12 [Example 157, (5aS,6S,9aR)-3-[1-(4-cyanophenyl)-1H-pyrazol-4-yl]-6-methyl-7-oxo-9a-phenyl-4,5,5a,6,7,9a-hexahydro-2H-benzo[g]indazole-8-carbonitrile] | 44.4
Cc1nc(-c2c[nH]c(=O)[nH]c2=O)c2c(n1)[C@@]1(c3ccc(F)cc3)C=C(C#N)C(=O)[C@@H](C)[C@@H]1CC2 [Example 94, (6aS,7S,10aR)-4-(2,4-dioxo-1,2,3,4-tetrahydropyrimidin-5-yl)-10a-(4-fluorophenyl)-2,7-dimethyl-8-oxo-5,6,6a,7,8,10a-hexahydrobenzo[h]quinazoline-9-carbonitrile] | 639
CCNc1ncc2c(n1)[C@@]1(c3ccccc3)C=C(C#N)C(=O)[C@@H](C)[C@@H]1CC2 [Example 12, (6aS,7S,10aR)-2-(ethylamino)-7-methyl-8-oxo-10a-phenyl-5,6,6a,7,8,10a-hexahydrobenzo[h]quinazoline-9-carbonitrile] | 24.1
COc1ccc([C@]23C=C(C#N)C(=O)[C@@H](C)[C@@H]2CCc2c[nH]nc23)cc1 [Example 58, (5aS,6S,9aR)-9a-(4-methoxyphenyl)-6-methyl-7-oxo-4,5,5a,6,7,9a-hexahydro-2H-benzo[g]indazole-8-carbonitrile] | 33.4
Cc1nc(-c2cnc(C)s2)c2c(n1)[C@@]1(c3ccccc3)C=C(C#N)C(=O)[C@@H](C)[C@@H]1CC2 [Example 18, (6aS,7S,10aR)-2,7-dimethyl-4-(2-methyl-1,3-thiazol-5-yl)-8-oxo-10a-phenyl-5,6,6a,7,8,10a-hexahydrobenzo[h]quinazoline-9-carbonitrile] | 5.17
COC(=O)c1cccc([C@]23C=C(C#N)C(=O)[C@@H](C)[C@@H]2CCc2c[nH]nc23)c1 [Example 62, methyl 3-[(5aS,6S,9aR)-8-cyano-6-methyl-7-oxo-2,4,5,5a,6,7-hexahydro-9aH-benzo[g]indazol-9a-yl]benzoate] | 39.4
C[C@@H]1C(=O)C(C#N)=C[C@]2(c3ccccc3)c3nc(-c4ccc(C(=O)O)cc4)ncc3CC[C@@H]12 [Example 77, 4-[(6aS,7S,10aR)-9-cyano-7-methyl-8-oxo-10a-phenyl-5,6,6a,7,8,10a-hexahydrobenzo[h]quinazolin-2-yl]benzoic acid] | 15.4
C[C@@H]1C(=O)C(C#N)=C[C@]2(c3ccccc3)c3nn(C)c(-c4cccc(-c5ccc(C(N)=O)cc5)c4)c3CC[C@@H]12 [Example 171, 3′-[(5aS,6S,9aR)-8-cyano-2,6-dimethyl-7-oxo-9a-phenyl-4,5,5a,6,7,9a-hexahydro-2H-benzo[g]indazol-3-yl]biphenyl-4-carboxamide] | 13.9
Cc1nc(-c2ccnnc2)c2c(n1)[C@@]1(c3ccccc3)C=C(C#N)C(=O)[C@@H](C)[C@@H]1CC2 [Example 172, (6aS,7S,10aR)-2,7-dimethyl-8-oxo-10a-phenyl-4-(pyridazin-4-yl)-5,6,6a,7,8,10a-hexahydrobenzo[h]quinazoline-9-carbonitrile] | 49.4
C[C@@H]1C(=O)C(C#N)=C[C@]2(c3cccc(O)c3)c3ncncc3CC[C@@H]12 [Example 137, (6aS,7S,10aR)-10a-(3-hydroxyphenyl)-7-methyl-8-oxo-5,6,6a,7,8,10a-hexahydrobenzo[h]quinazoline-9-carbonitrile] | 8.93
